Measurements from patent US20220096664A1, “STABILIZED FORMULATIONS CONTAINING IODINATED CONTRAST AGENTS AND CYCLODEXTRINS” (Verrow Pharmaceuticals, Inc., priority 2012, published 2022).
Like-named read-outs stand apart in the source and are kept apart here.

What was measured:
[1] = Photostability: iodide formed after UV light irradiation; type: physicochemical; details: 18 h, 50 mM
Procedure: Aqueous solutions comprising iodinated contrast agents were prepared and evaluated in a photolysis chamber as described in the ICH guidance document, Q1B Photostability Testing of New Drug Substances and Products, available from the US Food and Drug Administration, incorporated herein by reference. The solutions were placed in 1 cm×1 cm (3 mL) quartz cuvettes having 2 clear sides and 2 sides etched. Lids were placed on the cuvettes and sealed with a wrap of Parafilm® around the joint. The cuvettes were placed in a photolysis chamber, upright on a flat surface beneath and centered between two horizontal 24 inch fluorescent lamps, (GE, black light F20T12, 20 watt for ultraviolet, or Philips F20T12/CW, 20 watt for visible) placed 6 cm apart. The cuvettes were positioned such that their two clear sides were facing the two lamps.
Cuvettes were spaced ˜2 cm from each other, and no closer than 15 cm from the ends of the lamps. This positioning allowed reproducible light exposure to all cuvettes.
The lamps were switched on and the solutions irradiated for 18 to 24 hours for the ultraviolet (UV) lamps or 72 to 90 hours for the visible (VIS) light lamps. At the end of the selected irradiation time, the cuvettes were removed from the photolysis chamber and mixed by inversion 2-times. The caps were then removed and 40 microliter aliquots taken and diluted with 1 mL of an aqueous solution containing ˜0.9 mg/mL sodium thiosulfate. The thiosulfate solution converted any I2, IO3^−, and I3^− present in the solution tor such that total iodine species could be determined in one assay.
The diluted solutions were assayed by high pressure liquid chromatography (HPLC) using a 4.6×250 mm, C-18, 5 micron particle size, reversed phase column with detection at 280 nm for the contrast agent and 230 nm for the thiosulfate and the iodide ion (r). A mobile phase of 30:70 methanol:aqueous buffer (50 mM KH2PO4+7 mL/L 40% tetrabutyl ammonium hydroxide) at 0.75 mL/min was used for elution. Injection volume was 20 microliters. External standards were prepared containing each contrast agent, potassium iodide, and sodium thiosulfate solution and analyzed along with the irradiated samples. The results were reported as weight percentage iodide formed (mg iodide/mg contrast agent times 100).
The absorbance readings at 400 nm due to light exposure were plotted against time of exposure and the resulting correlation used to determine the UV and VIS light exposure. A change in absorbance reading of 0.45 was assumed equivalent to 200 watt hours/square meter for the UV light and a change of 0.51 was assumed equivalent to 1.2 million lux hours for the VIS light. The UV lamps provided 6.62 watts/square meter and the VIS lamps provided 7180 lux.
Aqueous solutions were prepared containing 50 mM contrast agent by diluting commercially available solutions with water. Tromethamine HCl buffer (TRIS), was added to solutions as necessary to increase the TRIS content to that of the commercial product before dilution.
SCD was added to the solutions at various mole ratios and the pH of the solutions adjusted to 7.4 with 0.1N hydrochloric acid or 0.1N sodium hydroxide. The solutions were irradiated with UV light for 18 hours (119 watt hours/m^2) then processed, analyzed and reported as in Example 2. The SCDs evaluated were sulfobutyl ether beta-cyclodextrin with an average degree of substitution of 7 (SBE-704CD), and two 2-hydroxypropyl beta-cyclodextrin derivatives having 6.3 (HP-6.3n/CD) and 4.3 (HP-4.3-βCD) average degrees of substitution.
Aqueous solutions were prepared containing 50 mM contrast agent by diluting commercially available solutions with distilled water. Tromethamine HCl buffer (TRIS), was added to some solutions to increase the buffer content.
The solutions were divided and SBE-7-CD added to one aliquot at a contrast agent:SCD mole ratio of 1:1. The pH of the solutions was adjusted to 5, 6, 7, 7.4 or 8 with 0.1N hydrochloric acid or sodium hydroxide. […]

[2] = type: physicochemical; details: for Iodide formed: 50 mM agent, 10 mM TRIS, pH 7.4, autoclaved then UV 18 h; for percent change in iodide degradants, UV: 24 h; for percent change in iodide degradants, UV / percent change in iodide degradants, VIS: pH 7.1; for percent change in iodide degradants, VIS: 72 h

- % Change in iodide degradants formed in the presence of the SCD ([1]; pH 5): −43.6%
- % Change in iodide degradants formed in the presence of the SCD ([1]; pH 7.4): −58.5%
- % Change in iodide degradants formed in the presence of the SCD ([1]; pH 8): −47%
- Iodide formed ([2]; agent:SBE7-β-CD 1:0.1): 0.545 wt %
- Iodide formed ([2]; no SCD (1:0)): 0.665 wt %
- percent change in iodide degradants formed in the presence of the SCD ([2]; 18 h, 50 mM, pH 7.4): (−18%)
- percent change in iodide degradants, UV ([2]; 160 mg I/mL): (−24.0%)
- percent change in iodide degradants, UV ([2]; 240 mg I/mL): (−19.2%)
- percent change in iodide degradants, UV ([2]; 300 mg I/mL): (−17.2%)
- percent change in iodide degradants, UV ([2]; 320 mg I/mL): (−36.7%)
- percent change in iodide degradants, UV ([2]; 350 mg I/mL): (−26.8%)
- percent change in iodide degradants, VIS ([2]; 160 mg I/mL): (−9.9%)
- percent change in iodide degradants, VIS ([2]; 240 mg I/mL): (−11.9%)
- percent change in iodide degradants, VIS ([2]; 300 mg I/mL): (−17.4%)
- percent change in iodide degradants, VIS ([2]; 320 mg I/mL): (−14.2%)
- percent change in iodide degradants, VIS ([2]; 350 mg I/mL): (−11.7%)
- Iodide Formed, UV ([2]; Ioversol 160 mg I/mL, pH 7.1, agent:SBE7CD 1:0.05, autoclaved then UV 24 h): 0.171 wt %
- Iodide Formed, VIS ([2]; Ioversol 160 mg I/mL, pH 7.1, agent:SBE7CD 1:0.05, autoclaved then VIS 72 h): 0.0646 wt %
- Iodide Formed, UV ([2]; Ioversol 160 mg I/mL, pH 7.1, no SCD (1:0), autoclaved then UV 24 h): 0.225 wt %
- Iodide Formed, VIS ([2]; Ioversol 160 mg I/mL, pH 7.1, no SCD (1:0), autoclaved then VIS 72 h): 0.0717 wt %
- Iodide Formed, UV ([2]; Ioversol 240 mg I/mL, pH 7.1, agent:SBE7CD 1:0.05, autoclaved then UV 24 h): 0.126 wt %
- Iodide Formed, VIS ([2]; Ioversol 240 mg I/mL, pH 7.1, agent:SBE7CD 1:0.05, autoclaved then VIS 72 h): 0.0400 wt %
- Iodide Formed, UV ([2]; Ioversol 240 mg I/mL, pH 7.1, no SCD (1:0), autoclaved then UV 24 h): 0.156 wt %
- Iodide Formed, VIS ([2]; Ioversol 240 mg I/mL, pH 7.1, no SCD (1:0), autoclaved then VIS 72 h): 0.0454 wt %
- Iodide Formed, UV ([2]; Ioversol 300 mg I/mL, pH 7.1, agent:SBE7CD 1:0.05, autoclaved then UV 24 h): 0.111 wt %
- Iodide Formed, VIS ([2]; Ioversol 300 mg I/mL, pH 7.1, agent:SBE7CD 1:0.05, autoclaved then VIS 72 h): 0.0298 wt %
- Iodide Formed, UV ([2]; Ioversol 300 mg I/mL, pH 7.1, no SCD (1:0), autoclaved then UV 24 h): 0.134 wt %
- Iodide Formed, VIS ([2]; Ioversol 300 mg I/mL, pH 7.1, no SCD (1:0), autoclaved then VIS 72 h): 0.0361 wt %
- Iodide Formed, UV ([2]; Ioversol 320 mg I/mL, pH 7.1, agent:SBE7CD 1:0.05, autoclaved then UV 24 h): 0.0778 wt %
- Iodide Formed, VIS ([2]; Ioversol 320 mg I/mL, pH 7.1, agent:SBE7CD 1:0.05, autoclaved then VIS 72 h): 0.0277 wt %
- Iodide Formed, UV ([2]; Ioversol 320 mg I/mL, pH 7.1, no SCD (1:0), autoclaved then UV 24 h): 0.123 wt %
- Iodide Formed, VIS ([2]; Ioversol 320 mg I/mL, pH 7.1, no SCD (1:0), autoclaved then VIS 72 h): 0.0323 wt %
- Iodide Formed, UV ([2]; Ioversol 350 mg I/mL, pH 7.1, agent:SBE7CD 1:0.05, autoclaved then UV 24 h): 0.0864 wt %
- Iodide Formed, VIS ([2]; Ioversol 350 mg I/mL, pH 7.1, agent:SBE7CD 1:0.05, autoclaved then VIS 72 h): 0.0250 wt %
- Iodide Formed, UV ([2]; Ioversol 350 mg I/mL, pH 7.1, no SCD (1:0), autoclaved then UV 24 h): 0.118 wt %
- Iodide Formed, VIS ([2]; Ioversol 350 mg I/mL, pH 7.1, no SCD (1:0), autoclaved then VIS 72 h): 0.0283 wt %
Structure (SMILES): O=C(NCC(O)CO)c1c(I)c(C(=O)NCC(O)CO)c(I)c(N(CCO)C(=O)CO)c1I (stereo not drawn) [Ioversol, ioversol]
